In one data set the target is T1, CYP2B6 (Homo sapiens, UniProt P20813).
T1 sequence (P20813 1-491): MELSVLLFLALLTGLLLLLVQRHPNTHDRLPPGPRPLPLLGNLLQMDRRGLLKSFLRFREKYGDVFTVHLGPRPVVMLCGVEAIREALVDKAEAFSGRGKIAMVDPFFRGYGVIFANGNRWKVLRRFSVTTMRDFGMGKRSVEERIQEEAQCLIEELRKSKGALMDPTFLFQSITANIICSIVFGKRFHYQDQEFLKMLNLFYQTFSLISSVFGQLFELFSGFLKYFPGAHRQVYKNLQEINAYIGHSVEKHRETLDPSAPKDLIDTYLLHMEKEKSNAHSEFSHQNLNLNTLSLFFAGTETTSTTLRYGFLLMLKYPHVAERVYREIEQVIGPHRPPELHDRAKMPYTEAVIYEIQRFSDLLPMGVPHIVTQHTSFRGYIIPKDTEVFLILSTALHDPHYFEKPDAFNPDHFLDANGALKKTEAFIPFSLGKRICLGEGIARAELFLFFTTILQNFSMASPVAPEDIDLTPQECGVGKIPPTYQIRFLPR
As to the kind of experiment: CYP2B6 inhibition, probe/drug metabolism in human liver microsomes.

Another data set has as its target T2, CYP1A2 (Homo sapiens, UniProt P05177).
T2 sequence (P05177 1-516): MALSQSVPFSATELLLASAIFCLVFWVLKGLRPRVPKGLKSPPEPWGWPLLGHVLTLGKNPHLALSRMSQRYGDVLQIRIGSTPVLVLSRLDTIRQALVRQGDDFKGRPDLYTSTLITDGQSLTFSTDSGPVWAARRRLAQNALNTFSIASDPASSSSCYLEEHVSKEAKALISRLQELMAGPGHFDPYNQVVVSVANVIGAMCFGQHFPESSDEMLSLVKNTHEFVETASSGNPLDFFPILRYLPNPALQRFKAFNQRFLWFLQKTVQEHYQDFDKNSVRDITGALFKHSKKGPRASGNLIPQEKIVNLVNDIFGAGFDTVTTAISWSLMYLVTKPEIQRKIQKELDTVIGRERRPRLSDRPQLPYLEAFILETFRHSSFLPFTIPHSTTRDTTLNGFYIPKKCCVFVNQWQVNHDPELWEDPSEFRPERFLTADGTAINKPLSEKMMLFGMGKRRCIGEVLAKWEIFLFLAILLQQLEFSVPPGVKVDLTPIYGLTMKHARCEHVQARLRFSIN
As to the kind of experiment: CYP1A2 inhibition, probe/drug metabolism in human liver microsomes (LC-MS/MS). Conditions: human, human liver microsomes, pH 7.4, probe phenacetin 40 μM, Residual activity (%) CYP1A2, HLM 0.5 mg/mL, phenacetin 40 μM, 30 min. In general terms: Microsomes from liver hold many membrane-bound enzymes, among them those of drug oxidation.

Another data set deals with CYP2C9 (Homo sapiens, UniProt P11712). Description: CYP2C9 inhibition, probe/drug metabolism in human liver microsomes.
In the next data set the test system is CYP3A4, CYP2B6, CYP2C9. Description: in vitro. It counts as in vitro ADME. The settings on record: human. The procedure:
Bupropion, artemisinin, efavirenz and sertraline are metabolized by CYP2B6. Diclofenac, valsartan, glimepiride and glibenclamide are metabolized by CYP2C9. Midazolam, imatinib, simvastatin and diltiazem are metabolized by CYP3A4.
Table S2. Information of clinical drugs
CYP subtype Drugs Metabolite Concentration Incubation time
CYP1A2 Melatonin 6-hydroxyl-melatonin 5 μM 30 min
Clozaril Demethyl-clozaril 10 μM 20 min
Riluzole Hydroxy-riluzole 5 μM 60 min
Phenacetin Deacetyl-phenacetin 40 μM 30 min
CYP2B6 Bupropion 4'-hydroxyl-bupropion 75 μM 30 min
Artemisinin Dihydroartemisinin 10 μM 30 min
Sertraline Demethyl-sertraline 5 μM 30 min
Efavirenz 8-hydroxyl-efavirenz 20 μM 30 min
CYP2C9 Diclofenac 4'-hydroxyl-diclofenac 4 μM 30 min
Valsartan 4-hydroxyl-valsartan 30 μM 30 min
Glimepiride Hydroxyl-glimepiride 50 μM 30 min
Glibenclamide Hydroxyl-glibenclamide 50 μM 30 min
CYP3A4 Midazolam 1'-hydroxyl-midazolam 5 μM 30 min
Simvastatin 6'-β-hydroxyl-simvastatin 10 μM 30 min
Diltiazem Demethyl-diltiazem 10 μM 30 min
Imatinib Demethyl-imatinib 5 μM 30 min

The target of a further data set is CYP3A4 (Homo sapiens, UniProt P08684). Description: CYP3A4 inhibition, probe/drug metabolism in human liver microsomes.
Chain of CYP3A4 (P08684 whole entry): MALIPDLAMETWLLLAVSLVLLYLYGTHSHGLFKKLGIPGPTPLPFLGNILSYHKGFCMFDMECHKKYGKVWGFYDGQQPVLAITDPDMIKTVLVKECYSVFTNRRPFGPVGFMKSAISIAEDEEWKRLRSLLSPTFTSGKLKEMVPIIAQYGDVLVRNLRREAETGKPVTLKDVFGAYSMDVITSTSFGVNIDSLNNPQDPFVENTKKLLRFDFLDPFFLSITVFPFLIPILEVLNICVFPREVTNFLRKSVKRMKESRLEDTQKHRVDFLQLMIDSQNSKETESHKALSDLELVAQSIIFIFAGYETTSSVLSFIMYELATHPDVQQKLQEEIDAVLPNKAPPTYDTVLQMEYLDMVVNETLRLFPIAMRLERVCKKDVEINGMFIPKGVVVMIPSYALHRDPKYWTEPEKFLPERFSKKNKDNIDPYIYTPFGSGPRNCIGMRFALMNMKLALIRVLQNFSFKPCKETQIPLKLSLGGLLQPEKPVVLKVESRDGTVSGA

Chain of CYP2C9 (P11712 whole entry): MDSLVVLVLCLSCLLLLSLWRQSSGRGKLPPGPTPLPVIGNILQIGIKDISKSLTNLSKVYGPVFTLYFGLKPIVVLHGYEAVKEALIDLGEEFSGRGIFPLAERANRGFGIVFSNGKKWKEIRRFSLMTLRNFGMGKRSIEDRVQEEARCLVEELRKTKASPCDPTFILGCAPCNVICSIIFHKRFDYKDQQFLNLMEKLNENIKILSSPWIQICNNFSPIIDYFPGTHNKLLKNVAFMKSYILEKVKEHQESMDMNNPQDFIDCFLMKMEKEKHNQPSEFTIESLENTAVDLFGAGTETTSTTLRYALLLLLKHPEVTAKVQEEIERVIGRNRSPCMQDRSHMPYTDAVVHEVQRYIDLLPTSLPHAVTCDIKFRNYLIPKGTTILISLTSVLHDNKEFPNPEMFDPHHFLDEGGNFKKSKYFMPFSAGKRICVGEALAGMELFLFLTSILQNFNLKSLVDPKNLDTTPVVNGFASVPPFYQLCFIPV

Usually IC50 stands for the midpoint of a concentration-inhibition curve. A high value points to lower potency. On to `CC(CCC(O)C(C)(O)CO)C1CCC2(C)C3=C(C(=O)CC12C)C1(C)CCC(=O)C(C)(C)C1CC3` (centres unmarked) [Compound 25, ganodrol C], for which the half-inhibitory concentration (IC50) was found to be 25.3 ± 3.7 µM at CYP2B6 (IC50 against CYP 2B6, substrate bupropion 75 μM, HLM); 21.5 ± 3.44 µM at CYP2B6 (IC50 against metabolism of artemisinin mediated by CYP2B6, substrate artemisinin 10 μM, 30 min); 24.3 ± 3.05 µM at CYP2B6 (IC50 against metabolism of efavirenz mediated by CYP2B6, substrate efavirenz 20 μM, 30 min); 25.1 ± 2.86 µM against CYP2B6 (IC50 against metabolism of sertraline mediated by CYP2B6, substrate sertraline 5 μM, 30 min); 10.3 ± 0.12 µM against CYP2C9 (IC50 against metabolism of glibenclamide mediated by CYP2C9, substrate glibenclamide 50 μM, 30 min); 12.3 ± 0.43 µM against CYP2C9 (IC50 against metabolism of glimepiride mediated by CYP2C9, substrate glimepiride 50 μM, 30 min). The IC50 on CYP2C9 (IC50 against metabolism of valsartan mediated by CYP2C9, substrate valsartan 30 μM, 30 min) came to 14.3 ± 1.14 µM; against CYP3A4 (IC50 against CYP 3A4, substrate midazolam 5 μM, HLM) it was 4.78 µM; against CYP3A4 (IC50 against metabolism of diltiazem mediated by CYP3A4, substrate diltiazem 10 μM, 30 min), 5.12 ± 0.56 µM; against CYP3A4 (IC50 against metabolism of imatinib mediated by CYP3A4, substrate imatinib 5 μM, 30 min) it was 7.57 ± 0.2 µM; at CYP3A4 (IC50 against metabolism of simvastatin mediated by CYP3A4, substrate simvastatin 10 μM, 30 min), 4.5 ± 0.48 µM. Further, the activity at 30 min on CYP2B6 (human, human liver microsomes, pH 7.4, probe bupropion 75 μM, Residual activity (%) CYP2B6, HLM 0.5 mg/mL, bupropion 75 μM, 30 min) is 56.8 ± 2.04%; at CYP1A2 it was 104 ± 18.9%; at CYP2C9 (human, human liver microsomes, pH 7.4, probe diclofenac 4 μM, Residual activity (%) CYP2C9, HLM 0.5 mg/mL, diclofenac 4 μM, 30 min), 32 ± 2.74%; at CYP3A4 (human, human liver microsomes, pH 7.4, probe midazolam 5 μM, Residual activity (%) CYP3A4, HLM 0.5 mg/mL, midazolam 5 μM, 30 min) it was 30.1 ± 1.54%. Further, the IC50 at 30 min was 11.4 µM on CYP2C9 (human, human liver microsomes, pH 7.4, probe diclofenac 4 μM, IC50 against CYP 2C9, substrate diclofenac 4 μM, HLM) and 4.5 to 25.3 µM in the data set on CYP3A4, CYP2B6, CYP2C9.

The record behind these values is paper PMC11605156, “Triterpenoids from Ganoderma lucidum inhibit cytochrome P450 enzymes interfering with the metabolic process of specific clinical drugs” (Frontiers in Pharmacology, 2024).
